In publication PMC4076632, “VAV3 mediates resistance to breast cancer endocrine therapy” (Breast Cancer Research : BCR, 2014):

Target: T1, estrogen receptor α (ERα) (Homo sapiens, UniProt P03372)
T1 construct: gene ESR1
T1 sequence (P03372 1-595): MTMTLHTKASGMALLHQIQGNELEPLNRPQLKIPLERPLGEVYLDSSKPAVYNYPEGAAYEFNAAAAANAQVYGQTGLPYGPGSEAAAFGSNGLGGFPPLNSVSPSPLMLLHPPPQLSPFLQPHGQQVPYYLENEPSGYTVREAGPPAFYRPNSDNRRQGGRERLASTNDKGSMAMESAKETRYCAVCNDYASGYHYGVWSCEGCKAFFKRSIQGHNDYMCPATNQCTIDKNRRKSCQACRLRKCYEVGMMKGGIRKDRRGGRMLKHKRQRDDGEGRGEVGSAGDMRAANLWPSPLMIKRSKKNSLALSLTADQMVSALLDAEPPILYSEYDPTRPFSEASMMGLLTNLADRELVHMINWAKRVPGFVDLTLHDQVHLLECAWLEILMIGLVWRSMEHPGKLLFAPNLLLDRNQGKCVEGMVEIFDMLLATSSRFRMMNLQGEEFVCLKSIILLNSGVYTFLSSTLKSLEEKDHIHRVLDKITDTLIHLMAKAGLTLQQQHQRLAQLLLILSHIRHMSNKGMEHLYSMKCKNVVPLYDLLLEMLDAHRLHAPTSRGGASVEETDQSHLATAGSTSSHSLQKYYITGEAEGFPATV
Experiment: ERα agonist fluoligand competition assay (Cerep) with fluorescein-labeled estradiol
Assay type: binding

- Ki: 26 µM
SMILES: OCc1ccc(-c2nn(Cc3ccccc3)c3ccccc23)o1 [YC-1, 3-(5′-hydroxymethyl-2′-furyl)-1-benzylindazole]
